Assays:
Adult houseflies = assay: Knock-down of adult houseflies, oil solution sprayed in a chamber (Test Example 1); type: in vivo, housefly; settings: 0.7 ml of 0.025% oil solution sprayed in 70 cm cubic chamber; 10 adult houseflies; counted two minutes after spraying; 2 repetitions
Method: Each 0.025 part of the present compounds (1) to (3) produced in the above Production Examples was dissolved in 10 parts of dichloromethane, and the solution was mixed with 89.975 parts of deodorized kerosene to prepare a 0.025% oil solution.
Adult houseflies (5 males and 5 females, total 10) were released in a cubic chamber having each side of 70 cm, and 0.7 ml of the 0.025% oil solution of the present compound prepared above was sprayed into the chamber through a small window on a side of the chamber using a spraying gun at a pressure of 8.8×10^4 Pa. Two minutes after spraying, the number of knocked-down houseflies was counted (2 repetitions).
In addition, the same as above test was performed by using, in place of the present compounds (1) to (3), 4-methyl-2,3,5,6-tetrafluorobenzyl (1R)-trans-3-(2-methyl-1-propenyl)-2,2-dimethylcyclopropanecarboxylate represented by the formula: […]

[1] = tested on: common mosquito (Culex pipens pallens) females; assay: Mortality of common mosquito females, oil solution sprayed in a chamber (Test Example 2); type: in vivo; settings: 0.7 ml of 0.00625% oil solution sprayed in 70 cm cubic chamber; ten females; recovered after ten minutes; dead counted after 24 hours; 2 repetition
Method: Each 0.00625 parts of the present compounds (1) to (3) produced in the above production Examples was dissolved in 10 parts of dichloromethane, and the solution was mixed with 89.99375 parts of deodorized kerosene to prepare a 0.00625% oil solution.
Ten common mosquito (Culex pipens pallens) females were released in a cubic chamber having each side of 70 cm, and 0.7 ml of the 0.00625% oil solution of the present compound prepared above was sprayed into the chamber through a small window on a side of the chamber using a spraying gun at a pressure of 8.8×10^4 Pa. After ten minutes, common mosquito females were recovered in a clean cup (bottom diameter 8.2 cm) with a cotton wool containing a 0.5% aqueous sugar, and allowed to stand until the next day. After 24 hours, the number of dead mosquitoes was counted, and a mortality was calculated (2 repetition).
In addition, the same as above test was performed using, in place of present compounds (1) to (3), 4-methoxymethyl-2,3,5,6-tetrafluorobenzyl (1R)-trans-3-(2-cyano-1-propenyl)-2,2-dimethylcyclopropanecarboxylate (ratio of isomers regarding double bond: Z/E=about 2/1; compound described in U.S. Pat. No. 6,908,945B2; hereinafter refereed to as Comparative Compound (4)) as a control.

Structure (SMILES) | Number of knock-down houseflies (Adult houseflies) | Mortality (%) [1] [%]
COc1c(F)c(F)c(COC(=O)[C@@H]2[C@@H](C=C(C)C)C2(C)C)c(F)c1F [Comparative compound (2), 4-methoxy-2,3,5,6-tetrafluorobenzyl (1R)-trans-3-(2-methyl-1-propenyl)-2,2-dimethylcyclopropanecarboxylate, reference compound] | 0 | 
COc1c(F)c(F)c(COC(=O)[C@@H]2[C@@H](C=C(C)C#N)C2(C)C)c(F)c1F (racemic) [Present compound (2), 4-methoxy-2,3,5,6-tetrafluorobenzyl (1R) trans-3-(2-cyano-1-propenyl)-2,2-dimethylcyclopropanecarboxylate] | 10 | 100
CC(C)=C[C@@H]1[C@@H](C(=O)OCc2c(F)c(F)c(C)c(F)c2F)C1(C)C [Comparative compound (1), 4-methyl-2,3,5,6-tetrafluorobenzyl (1R)-trans-3-(2-methyl-1-propenyl)-2,2-dimethylcyclopropanecarboxylate, reference compound] | 0 | 
C=CCc1c(F)c(F)c(COC(=O)[C@@H]2[C@@H](C=C(C)C#N)C2(C)C)c(F)c1F (racemic) [Present compound (3), 4-allyl-2,3,5,6-tetrafluorobenzyl (1R)-trans-3-(2-cyano-1-propenyl)-2,2-dimethylcyclopropanecarboxylate] | 9 | 70
CC(C#N)=C[C@@H]1[C@@H](C(=O)OCc2c(F)c(F)c(C)c(F)c2F)C1(C)C (racemic) [Present compound (1), 4-methyl-2,3,5,6-tetrafluorobenzyl (1R)-trans-3-(2-cyano-1-propenyl)-2,2-dimethylcyclopropanecarboxylate] | 10 | 95
C=CCc1c(F)c(F)c(COC(=O)[C@@H]2[C@@H](C=C(C)C)C2(C)C)c(F)c1F [Comparative compound (3), 4-allyl-2,3,5,6-tetrafluorobenzyl (1R)-trans-3-(2-methyl-1-propenyl)-2,2-dimethylcyclopropanecarboxylate, reference compound] | 0 | 
COCc1c(F)c(F)c(COC(=O)[C@@H]2[C@@H](C=C(C)C#N)C2(C)C)c(F)c1F [Comparative compound (4), 4-methoxymethyl-2,3,5,6-tetrafluorobenzyl (1R)-trans-3-(2-cyano-1-propenyl)-2,2-dimethylcyclopropanecarboxylate, reference compound] |  | 16
